Where a name gives a salt, the structure may show the parent alone.
Key:
[1] = system: hind leg of cats anaesthetized with chloralose; settings: intraarterial, about 1-2 mg/kg
[2] = intravenous toxicity (LD50, survival time) of mecamylamine preparations in mice; assay type: in vivo, male albino mice of the NMRI strain; settings: mouse, in vivo, 1% preparations, fiducial limits at P = 0.05
From the text: (§1) Mecamylamine (3-methylaminoisocamphane hydrochloride) is a ganglion-blocking secondary amine, and as a base, it is an oily liquid which is soluble in lipids. Its toxicity (LD50) after intravenous administration has been estimated in male albino mice of the NMRI strain in accordance with the method of the Nordic Pharmacopoeia. The following preparations were used:
(§2) Mecamylamine hydrochloride, 1% dissolved in saline
(§3) Mecamylamine base, dissolved in soybean oil and emulsified in the conventional way. Final concentration 1%.
(§4) Mecamylamine base, directly emulsified in 5.5% glucose solution with the aid of Pluronic F-68 (a registered trade mark for a nonionic emulsifier consisting of a block polymer of ethylene oxide and propylene oxide, from Wyandotte Chemical Corporation, described on page 392 of the Extra Pharmacopoeia, Martindale, 26th Edition) and an ultrasonic apparatus (20.000 Hz). Final concentration 1%.
(§5) The injections were given in the dorsal tail vein at a speed of 0.1 ml per 5 seconds.

[3] = system: male albino mice of the NMRI strain; assay: as above; assay type: in vivo; settings: ± S.E.
From the text: as §1, §2, §3, §4, §5

[4] = pH value of phenyramidol preparations; assay type: physicochemical; settings: aqueous solution
[5] = system: chloralose-anaesthetized cat; assay: effect on blood pressure in chloralose-anaesthetized cat; assay type: in vivo; settings: intravenous
Method: The effects of the emulsion on the blood pressure when given intravenously in a dose of 5-10 mg/kg was registered on a chloralose-anaesthetized cat.

mouse = assay: sleeping time in mouse (loss of righting reflex); assay type: in vivo; settings: single dose
From the text: The sleeping time after a single dose injection of the emulsion was shorter than the sleeping time after injection of an aqueous solution of sodium hexobarbital:
In accordance with common practice, the sleeping time has been set as the duration of the loss of the righting reflex.

With CC1CC(OC(=O)C(O)c2ccccc2)CC(C)(C)C1 (stereo not drawn) [Cyclandelate, 3,5,5-trimethylcyclohexyl mandelate] the onset of vasodilatation [1] was “within a few seconds” and the vasodilatation ([1]; especially in noradrenaline induced vasoconstriction) was “marked vasodilatation”.

For CNC1(C)C2CCC(C2)C1(C)C (stereo not drawn) [Mecamylamine HCl, 3-methylaminoisocamphane hydrochloride], the LD50 [2] was 16.3 mg/kg and the “Survival time (time from the injections to death)” value [3] was 55 ± 5.1 s.

With OC(CNc1ccccn1)c1ccccc1 (stereo not drawn) [phenyramidol hydrochloride] the “pH value compared with the emulsion” value [4] was “lower pH value”.

With CN1C(=O)NC(=O)C(C)(C2=CCCCC2)C1=O (stereo not drawn) [sodium hexobarbital] the “duration of blood pressure depression, emulsion and sodium hexobarbital solution” value [5] was “about the same duration”, the “depression of blood pressure” value ([5]; 5-10 mg/kg) was “about 6 mm Hg” and the Sleeping time (mouse; 72 mg/kg) was 172 s. It also gave a Sleeping time (mouse; 86 mg/kg) of 905 s.
